Source: patent US9212146B2, “Substituted pyridazinones for the treatment of tumors” (SHANGHAI INSTITUTE OF MATERIA MEDICA, CHINESE ACADEMY OF …, priority 2008, dated 2015)
Like-named read-outs stand apart in the source and are kept apart here. Each block holds one molecule with its values, some of them ahead of it.

Assays:
[1] = tested on: ovarian cancer cell line SK-OV-3; assay: SRB proliferation assay, SK-OV-3; format: cell-based; details: Homo sapiens, 72 hours
Experimental: (§1) Protocol: the antineoplasmic activities in vitro of the compounds were assayed by a Sulforhodamine B (SRB) protocol. Tumor cells were cultivated at 37 under 5% CO2 in a RPMI 1640 medium or a DMEM medium (Gibco) containing 10% fetal bovine serum. Tumor cells were inoculated on a 96-well plate with a concentration of 0.4-1.0×10^4 cells per well according to the cell types. 24 hours later, the target compounds diluted 10 times were added, each compound having at least 5 concentrations. After treated by the compounds for 72 hours, the culture media were discarded, and the cells were fixed by 10% cold trichloroacetic acid, and then stained by Sulforhodamine B (SRB) solution. The uncombined SRB was washed off, and the SRB combined with protein was dissolved with Tris. OD values were recorded at 515 nm on an ELISA Reader, and the cell growth inhibition rate was calculated according to following equation: Inhibition rate=(ODcontrol−ODexperimental)/ODcontrol×100%
(§2) IC50 (50% inhibitory concentration) was calculated by using Logit method based on the inhibition rates at various concentration, and the results are shown in tables 1 and 2. […]

[2] = tested on: liver cancer of animals; assay: Curative effect against liver cancer of animals in vivo
[3] = tested on: colon adenocarcinoma cell line HT-29; assay: SRB proliferation assay, HT-29; format: cell-based; details: Homo sapiens, HT-29, colon carcinoma, 72 hours
Experimental: as §1, §2

[4] = tested on: human hepatoma cell line Bel-7402; assay: SRB proliferation assay, Bel-7402; format: cell-based; details: Homo sapiens, Bel-7402, 72 h
Experimental: as §1
IC50 (50% inhibitory concentration) was calculated by using Logit method based on the inhibition rates at various concentration, and the results are shown in tables 1 and 2.
The following cell lines were used: human hepatocarcinoma cell line […]; ovarian cancer cell line SK-OV-3; human breast cancer cell line MDA-MB-231; human renal carcinoma cell line A498; colon adenocarcinoma cell line HT-29; non-small cell lung cancer cell line NCI-H460; lung adenocarcinoma cell line A549; human colon cancer cell line SW-620; human hepatoma cell line Bel-7402; human breast carcinoma cell line SK-BR-3; and human umbilical vein endothelial cells (HUVEC).

[5] = tested on: human colon cancer cell line SW-620; assay: SRB proliferation assay, SW-620; format: cell-based; details: SW-620, colon carcinoma, 72 hours
Experimental: as §1, §2

[6] = tested on: human breast cancer cell line MDA-MB-231; assay: SRB proliferation assay, MDA-MB-231; format: cell-based; details: MDA-MB-231, breast carcinoma, 72 hours
Experimental: as §1, §2

[7] = tested on: human umbilical vein endothelial cells (HUVEC); assay: SRB proliferation assay, HUVEC; format: cell-based; details: human umbilical vein endothelial cells (normal cells), 72 hours
Experimental: as §1, §2

[8] = tested on: human breast carcinoma cell line SK-BR-3; assay: SRB proliferation assay, SK-BR-3; format: cell-based; details: SK-BR-3, breast carcinoma, 72 hours
Experimental: as §1, §2

[9] = tested on: human renal carcinoma cell line A498; assay: SRB proliferation assay, A498; format: cell-based; details: 72 hours
Experimental: as §1, §2

[10] = tested on: non-small cell lung cancer cell line NCI-H460; assay: SRB proliferation assay, NCI-H460; format: cell-based; details: Homo sapiens, 72 hours
Experimental: as §1, §2

[11] = tested on: human hepatocarcinoma cell line SIMM-7721; assay: SRB proliferation assay, SIMM-7721; format: cell-based; details: SIMM-7721, liver cancer, 72 hours
Experimental: as §1, §2

[12] = tested on: human liver cancer cells Bel-7402 transplanted tumor; format: in vivo
Text: Name and lot number: YHHU-744, a white powder, lot No.: No. c001471-106; YHHU-755, a white powder, lot No.: No. c001471-102; YHHU-756, a white powder, lot No.: No. c00147-106; YHHU-759, a white powder, lot No.: No. c001471-102; YHHU-776, a white powder, lot No.: No. c001471-107. Sorafenib was used as a positive control.
Formulation: YHHU-744, YHHU-755, YHHU-756, YHHU-759, YHHU-776 and the positive control were each diluted with 0.1% Tween-80 and distilled water to a desired concentration.
BALB/cA nude mice, 6-7 weeks old, ♀, were purchased from Shanghai SLAC Laboratory Animal Co. LTD. Certificate No.: SCXK (Shanghai) 2007-0005. Habitat: SPF level.
Human liver cancer cells Bel-7402 were inoculated on nude mice subcutaneously. After the tumor grew up to 300-450 mm^3, animals were grouped randomly (d0). The tumor volume was measured 2-3 times each week and the weights of mice were recorded. The tumor volume was calculated according to as the following equation. V=½×a×b^2 wherein, a and b are length and width, respectively. […]

[13] = BEL-7402 cultivated in vitro, given as bounds, read-out: The Inhibition Activities for Human Liver Cancer Cells BEL-7402 (IC50)
[14] = 100 mg/kg, PO, QDx11, Bel-7402 on nude mice

SMILES: O=c1ccc(-c2ccc(N3CCCC3)c(C(F)(F)F)c2)n[nH]1 [YHHU-646]
IC50 [1]: 0.003 µM
curative effect against liver cancer of animals in vivo [2]: significant curative effect
IC50 [3]: 6.3 µM
IC50 [4, 13]: < 0.01 µM
IC50 ([4]; Bel-7402, liver cancer, Table 1, read-out: IC50): 0.0007 µM
IC50 [5]: 5.8 µM
IC50 [6]: > 20 µM
IC50 [7]: 0.03 µM
IC50 [8]: 7.5 µM
IC50 [9]: 4.12 µM
IC50 [10]: 24.1 µM
IC50 [11]: < 0.1 µM

SMILES: CCOC(=O)CSc1ccc(-c2ccc(=O)[nH]n2)cc1C(F)(F)F [YHHU-532]
IC50 [4, 13]: < 0.1 µM

SMILES: CCNc1ccc(-c2ccc(=O)[nH]n2)cc1C(F)(F)F [YHHU-744]
IC50 [4, 13]: < 0.01 µM
Quantity of Animals Whose Tumors Vanished ([12]; 100 mg/kg, PO, QDx11, 5 animals per group): 4
Inhibition Rate (%) [12, 14]: 98%
Tumor Volume (mm^3) [12, 14]: 343.7 mm^3
tumors vanished (animals/group) ([12]; at the 11th day, intragastrically once a day for 11 days): 4/5
toxicity / survivability of mice ([12]; intragastrically once a day for 11 days, nude mice): no significant toxicity was observed

Further lines, results first:

IC50 [4, 13]: < 0.01 µM
SMILES: C[C@@H]1CN(c2ccc(-c3ccc(=O)[nH]n3)cc2C(F)(F)F)C[C@H](C)O1 [YHHU-669]

IC50 [4, 13]: < 1 µM
SMILES: O=C1CSC(=O)N1c1ccc(-c2ccc(=O)[nH]n2)cc1C(F)(F)F [YHHU-674]
